Experimental data taken from PubChem BioAssay AID2060884 (Molecular Pharmacology Branch, DTP, NCI, 2025).

System: NCI-H929 complex spheroids, viability % test/control
Test: Anticancer human tumor NCI-H929 cell line growth inhibition [RAS];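 also: compound exposure lasted seven days before viability was read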;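 as to viability, T/C: 100% = DMSO vehicle control viability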
Settings: for IC50: curve of first compound; for viability, T/C: stronger effect = lower value
Method in brief: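 Multi-cell-type spheroids: tumor cells plus HUVEC endothelial cells and mesenchymal stem cells. RAS-pathway inhibitors were combined with targeted agents, each dosed in half-log steps down from clinical Cmax, or from 10 microM when Cmax was unknown.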

CC(=O)OC12COC1CC(O)C1(C)C(=O)C(O)C3=C(C)C(OC(=O)C(O)C(NC(=O)OC(C)(C)C)c4ccccc4)CC(O)(C(OC(=O)c4ccccc4)C21)C3(C)C (centres undefined) + CCn1c(-c2cc(N3CCN(C)CC3)cnc2C(C)OC)c2c3cc(ccc31)-c1csc(n1)CC(NC(=O)C1CC1C)C(=O)N1CCCC(N1)C(=O)OCC(C)(C)C2
IC50 (second compound 0.000949 µM): < 31.6 nM | IC50 (second compound 0.003 µM): < 31.6 nM | IC50 (second compound 0.00949 µM): < 31.6 nM | IC50 (second compound 0.03 µM): < 31.6 nM | IC50 (second compound 0.0949 µM): < 31.6 nM | IC50 (second compound 0.3 µM): < 31.6 nM | viability, T/C (second compound 0.000949 µM, first compound 0.0316 µM): 0.9% | viability, T/C (second compound 0.000949 µM, first compound 0.1 µM): 0.92% | viability, T/C (second compound 0.000949 µM, first compound 0.316 µM): 1.34% | viability, T/C (second compound 0.000949 µM, first compound 1 µM): 1.14% | viability, T/C (second compound 0.000949 µM, first compound 3.16 µM): 1.74% | viability, T/C (second compound 0.000949 µM, first compound 10 µM): 1.22% | viability, T/C (second compound 0.003 µM, first compound 0.0316 µM): 1.12% | viability, T/C (second compound 0.003 µM, first compound 0.1 µM): 1.88% | viability, T/C (second compound 0.003 µM, first compound 0.316 µM): 1.04% | viability, T/C (second compound 0.003 µM, first compound 1 µM): 0.64% | viability, T/C (second compound 0.003 µM, first compound 3.16 µM): 1.46% | viability, T/C (second compound 0.003 µM, first compound 10 µM): 0.97% | viability, T/C (second compound 0.00949 µM, first compound 0.0316 µM): 1.36% | viability, T/C (second compound 0.00949 µM, first compound 0.1 µM): 1.42% | viability, T/C (second compound 0.00949 µM, first compound 0.316 µM): 1.07% | viability, T/C (second compound 0.00949 µM, first compound 1 µM): 1.07% | viability, T/C (second compound 0.00949 µM, first compound 3.16 µM): 0.91% | viability, T/C (second compound 0.00949 µM, first compound 10 µM): 1.16% | viability, T/C (second compound 0.03 µM, first compound 0.0316 µM): 1.81% | viability, T/C (second compound 0.03 µM, first compound 0.1 µM): 0.83% | viability, T/C (second compound 0.03 µM, first compound 0.316 µM): 0.75% | viability, T/C (second compound 0.03 µM, first compound 1 µM): 1.71% | viability, T/C (second compound 0.03 µM, first compound 3.16 µM): 0.99% | viability, T/C (second compound 0.03 µM, first compound 10 µM): 1.17% | viability, T/C (second compound 0.0949 µM, first compound 0.0316 µM): 1.09% | viability, T/C (second compound 0.0949 µM, first compound 0.1 µM): 0.75% | viability, T/C (second compound 0.0949 µM, first compound 0.316 µM): 0.6% | viability, T/C (second compound 0.0949 µM, first compound 1 µM): 0.56% | viability, T/C (second compound 0.0949 µM, first compound 3.16 µM): 1.05% | viability, T/C (second compound 0.0949 µM, first compound 10 µM): 0.51% | viability, T/C (second compound 0.3 µM, first compound 0.0316 µM): 0.99% | viability, T/C (second compound 0.3 µM, first compound 0.1 µM): 0.51% | viability, T/C (second compound 0.3 µM, first compound 0.316 µM): 0.87% | viability, T/C (second compound 0.3 µM, first compound 1 µM): 0.72% | viability, T/C (second compound 0.3 µM, first compound 3.16 µM): 0.64% | viability, T/C (second compound 0.3 µM, first compound 10 µM): 0.46%

CCc1c2c(nc3ccc(O)cc13)-c1cc3c(c(=O)n1C2)COC(=O)[C@]3(O)CC + CCn1c(-c2cc(N3CCN(C)CC3)cnc2C(C)OC)c2c3cc(ccc31)-c1csc(n1)CC(NC(=O)C1CC1C)C(=O)N1CCCC(N1)C(=O)OCC(C)(C)C2
IC50 (second compound 0.000949 µM): 1.88 nM | IC50 (second compound 0.003 µM): 2.18 nM | IC50 (second compound 0.00949 µM): 2 nM | IC50 (second compound 0.03 µM): < 0.949 nM | IC50 (second compound 0.0949 µM): < 0.949 nM | IC50 (second compound 0.3 µM): < 0.949 nM | viability, T/C (second compound 0.000949 µM, first compound 0.000949 µM): 108% | viability, T/C (second compound 0.000949 µM, first compound 0.003 µM): 10.3% | viability, T/C (second compound 0.000949 µM, first compound 0.00949 µM): 1.4% | viability, T/C (second compound 0.000949 µM, first compound 0.03 µM): 2.14% | viability, T/C (second compound 0.000949 µM, first compound 0.0949 µM): 0.7% | viability, T/C (second compound 0.000949 µM, first compound 0.3 µM): 0.99% | viability, T/C (second compound 0.003 µM, first compound 0.000949 µM): 103% | viability, T/C (second compound 0.003 µM, first compound 0.003 µM): 29.6% | viability, T/C (second compound 0.003 µM, first compound 0.00949 µM): 1.69% | viability, T/C (second compound 0.003 µM, first compound 0.03 µM): 1.32% | viability, T/C (second compound 0.003 µM, first compound 0.0949 µM): 1.58% | viability, T/C (second compound 0.003 µM, first compound 0.3 µM): 1.28% | viability, T/C (second compound 0.00949 µM, first compound 0.000949 µM): 114% | viability, T/C (second compound 0.00949 µM, first compound 0.003 µM): 15.1% | viability, T/C (second compound 0.00949 µM, first compound 0.00949 µM): 1.72% | viability, T/C (second compound 0.00949 µM, first compound 0.03 µM): 1.61% | viability, T/C (second compound 0.00949 µM, first compound 0.0949 µM): 1.9% | viability, T/C (second compound 0.00949 µM, first compound 0.3 µM): 0.54% | viability, T/C (second compound 0.03 µM, first compound 0.000949 µM): 19.6% | viability, T/C (second compound 0.03 µM, first compound 0.003 µM): 2.7% | viability, T/C (second compound 0.03 µM, first compound 0.00949 µM): 1.2% | viability, T/C (second compound 0.03 µM, first compound 0.03 µM): 1.06% | viability, T/C (second compound 0.03 µM, first compound 0.0949 µM): 1.1% | viability, T/C (second compound 0.03 µM, first compound 0.3 µM): 0.6% | viability, T/C (second compound 0.0949 µM, first compound 0.000949 µM): 4.5% | viability, T/C (second compound 0.0949 µM, first compound 0.003 µM): 1.29% | viability, T/C (second compound 0.0949 µM, first compound 0.00949 µM): 1.45% | viability, T/C (second compound 0.0949 µM, first compound 0.03 µM): 0.94% | viability, T/C (second compound 0.0949 µM, first compound 0.0949 µM): 1.04% | viability, T/C (second compound 0.0949 µM, first compound 0.3 µM): 0.39% | viability, T/C (second compound 0.3 µM, first compound 0.000949 µM): 2.56% | viability, T/C (second compound 0.3 µM, first compound 0.003 µM): 1.55% | viability, T/C (second compound 0.3 µM, first compound 0.00949 µM): 0.57% | viability, T/C (second compound 0.3 µM, first compound 0.03 µM): 0.84% | viability, T/C (second compound 0.3 µM, first compound 0.0949 µM): 1.38% | viability, T/C (second compound 0.3 µM, first compound 0.3 µM): 0.4%
